# Legend:
# Format in all cases: binding
# [1] = molecular target: GAPA1 (chloroplastic glyceraldehyde 3-phosphate dehydrogenase A1) (Arabidopsis thaliana, UniProt P25856, N94G); experiment: SPR on immobilised 3-AESA, […] protein; response diminished by […] versus WT
# [2] = molecular target: GAPA1 (chloroplastic glyceraldehyde 3-phosphate dehydrogenase A1) (Arabidopsis thaliana, UniProt P25856, W378L); experiment: SPR on immobilised 3-AESA
# [3] = molecular target: T1, GAPA1 (chloroplastic glyceraldehyde 3-phosphate dehydrogenase A1) (Arabidopsis thaliana, UniProt P25856); experiment: SPR (Biacore […]), 3-AESA immobilised via its amino group on CM5 chip, […] Langmuir fit
# T1 sequence (P25856 60-396): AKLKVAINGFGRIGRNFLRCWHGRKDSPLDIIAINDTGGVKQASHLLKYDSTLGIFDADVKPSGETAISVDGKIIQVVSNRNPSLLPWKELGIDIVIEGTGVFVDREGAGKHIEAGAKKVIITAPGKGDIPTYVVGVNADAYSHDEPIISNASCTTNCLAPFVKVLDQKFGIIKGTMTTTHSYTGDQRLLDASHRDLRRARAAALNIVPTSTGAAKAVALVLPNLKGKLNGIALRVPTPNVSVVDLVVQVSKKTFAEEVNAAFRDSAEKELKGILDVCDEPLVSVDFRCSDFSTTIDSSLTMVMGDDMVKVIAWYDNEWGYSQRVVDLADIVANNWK
# [4] = molecular target: T1, GAPA1 (chloroplastic glyceraldehyde 3-phosphate dehydrogenase A1); experiment: SPR competition with immobilised 3-AESA (competition seen from […] NADH)
# [5] = molecular target: T1, GAPA1 (chloroplastic glyceraldehyde 3-phosphate dehydrogenase A1); experiment: SPR competition with immobilised 3-AESA; also inhibits GAPDH activity of purified GAPA1 ([…] at […])
# GAPA1 (chloroplastic glyceraldehyde 3-phosphate dehydrogenase A1) (Arabidopsis thaliana, UniProt P25856, N94G), sequence (P25856 60-396 N94G): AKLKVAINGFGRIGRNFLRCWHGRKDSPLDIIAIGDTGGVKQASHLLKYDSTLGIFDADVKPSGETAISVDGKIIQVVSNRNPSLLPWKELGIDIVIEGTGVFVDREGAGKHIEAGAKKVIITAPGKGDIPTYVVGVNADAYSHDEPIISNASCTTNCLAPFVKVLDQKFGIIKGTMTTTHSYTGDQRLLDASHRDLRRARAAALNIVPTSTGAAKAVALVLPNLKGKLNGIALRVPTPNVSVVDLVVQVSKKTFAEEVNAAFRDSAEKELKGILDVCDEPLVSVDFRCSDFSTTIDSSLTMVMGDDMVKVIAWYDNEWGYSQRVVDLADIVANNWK
# GAPA1 (chloroplastic glyceraldehyde 3-phosphate dehydrogenase A1) (Arabidopsis thaliana, UniProt P25856, W378L), sequence (P25856 60-396 W378L): as the sequence (P25856 60-396 N94G) above, with G35N, W319L counted along it
structure (smiles),measurement,setting,value
"NCCc1cccc(C(=O)O)c1O [3-AESA, 3-aminoethyl salicylic acid]","SPR on immobilised 3-AESA, 50 nM protein; response diminished by 66% versus WT",[1],No complete loss of ability to bind 3-AESA was observed in these mutated proteins.
same,SPR on immobilised 3-AESA,[2],the ability of GAPA1 Trp319Leu to bind 3-AESA was not affected
same,Kd,[3],16.7 ± 5.7 nM
NC(=O)C1=CN([C@@H]2O[C@H](COP(=O)(O)OP(=O)(O)OC[C@H]3O[C@@H](n4cnc5c(N)ncnc54)[C@H](O)[C@@H]3O)[C@@H](O)[C@H]2O)C=CC1 [NADH],SPR competition with immobilised 3-AESA (competition seen from 2 μM NADH),[4],pre-incubation of GAPA1 on ice with NADH reduced the level of GAPA1 association with immobilised 3-AESA
"O=C(O)c1ccccc1O [SA, 2-hydroxybenzoic acid]",SPR competition with immobilised 3-AESA; also inhibits GAPDH activity of purifie,[5],GAPA1 association with immobilised 3-AESA was inhibited by the presence of SA in a running buffer in a concentration-dependent manner

# From paper PMC7370300, “Deciphering the Binding of Salicylic Acid to Arabidopsis thaliana Chloroplastic GAPDH-A1” (International Journal of Molecular Sciences, 2020)
